Columns and labels:
lambsquarters = assay: Test C pre-/postemergence herbicide test; type: in vivo, Chenopodium album
Outline: (§1)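 Preemergence: seeds planted and treated with compound in non-phytotoxic solvent with surfactant; postemergence: plants at 2 to 18 cm (1- to 4-leaf stage) sprayed likewise. Kept in greenhouse 12 to 14 days, then visually rated against controls, 0 (no effect) to 100 (complete control).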

kochia = assay: Test C pre-/postemergence herbicide test; type: in vivo, Kochia scoparia
Outline: as §1

Surinam grass = assay: Test C pre-/postemergence herbicide test; type: in vivo, Urochloa decumbens
Outline: as §1

goosegrass = assay: Test C pre-/postemergence herbicide test; type: in vivo, Eleusine indica
Outline: as §1

pigweed = assay: Test B pre-/postemergence herbicide test; type: in vivo, Amaranthus retroflexus
Outline: (§2)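 Formulation: non-phytotoxic solvent mix with surfactant. Timing: preemergence on seed and postemergence on 2–18 cm plants, applied concurrently. Readout after 13–15 d greenhouse: visual 0–100 control rating against controls.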

common ragweed = assay: Test C pre-/postemergence herbicide test; type: in vivo, Ambrosia elatior; set-up: key to Plant response rating, Ragweed: 0 = no effect, 100 = complete control
Outline: as §1

large crabgrass = assay: Test C pre-/postemergence herbicide test; type: in vivo, Digitaria sanguinalis
Outline: as §1

giant foxtail = assay: Test B pre-/postemergence herbicide test; type: in vivo, Setaria faberi
Outline: as §2

[1] = 125 g ai/ha, scale 0 (no effect) to 100 (complete control), visual, 12 to 14 days, preemergence
[2] = 250 g ai/ha, scale 0 to 100 (0 no effect, 100 complete control), visual, 12 to 14 days, preemergence
[3] = Postemergence, 250 g ai/ha, scale 0 to 100, 0 no effect, 100 complete control
[4] = postemergence, 62 g ai/ha, scale 0 to 100
[5] = Postemergence, 125 g ai/ha, scale 0 to 100, 0 no effect, 100 complete control
[6] = Postemergence, 500 g ai/ha, visual rating after 13 to 15 days, scale 0 (no effect) to 100 (complete control)
[7] = Preemergence, 500 g ai/ha, scale 0 to 100
[8] = preemergence, 125 g ai/ha, 0 to 100 scale, 0 is no effect, 100 is complete control

SMILES: CCn1nc(C(C)(C)C)cc1C(=O)Nc1cccc(C(=O)NC2CC2)c1 [Compound 44]
- Plant response rating (0 = no effect, 100 = complete control), Lambsquarters (lambsquarters; 62 g ai/ha, preemergence): 90
- Plant response rating, Lambsquarters (lambsquarters; [1]): 100
- Plant response rating, Lambsquarters (lambsquarters; [2]): 100
- Plant response rating, Lambsquarters (lambsquarters; [3]): 90
- Plant response rating, Lambsquarters (lambsquarters; [4]): 90
- Plant response rating (0 = no effect, 100 = complete control), Kochia (kochia; 62 g ai/ha, preemergence): 0
- Plant response rating, Kochia (kochia; [1]): 10
- Plant response rating, Kochia (kochia; [2]): 10
- Plant response rating, Kochia (kochia; [5]): 90
- Plant response rating, Kochia (kochia; [3]): 90
- Plant response rating, Kochia (kochia; [4]): 90
- Plant response rating (0 = no effect, 100 = complete control), Surinam Grass (Surinam grass; 62 g ai/ha, preemergence): 10
- Plant response rating, Surinam Grass (Surinam grass; [1]): 10
- Plant response rating, Surinam Grass (Surinam grass; [2]): 10
- Plant response rating, Surinam Grass (Surinam grass; [3]): 40
- Plant response rating, Surinam Grass (Surinam grass; [4]): 40
- Plant response rating (0 = no effect, 100 = complete control), Goosegrass (goosegrass; 62 g ai/ha, preemergence): 10
- Plant response rating, Goosegrass (goosegrass; [1]): 30
- Plant response rating, Goosegrass (goosegrass; [2]): 50
- Plant response rating, Goosegrass (goosegrass; [5]): 40
- Plant response rating, Goosegrass (goosegrass; [3]): 50
- Plant response rating, Goosegrass (goosegrass; [4]): 40
- Plant response rating, Pigweed (pigweed; [6]): 100
- Pigweed plant response rating (pigweed; [7]): 100
- Plant response rating, Pigweed (pigweed; [8]): 100
- Plant response rating (0 = no effect, 100 = complete control), Ragweed (common ragweed; 62 g ai/ha, preemergence): 0
- Plant response rating, Ragweed (common ragweed; [1]): 30
- Plant response rating, Ragweed (common ragweed; [2]): 70
- Plant response rating, Ragweed (common ragweed; [3]): 90
- Plant response rating, Ragweed (common ragweed; [4]): 50
- Plant response rating (0 = no effect, 100 = complete control), Crabgrass, Large (large crabgrass; 62 g ai/ha, preemergence): 0
- Plant response rating, Crabgrass, Large (large crabgrass; [1]): 20
- Plant response rating, Crabgrass, Large (large crabgrass; [2]): 20
- Plant response rating, Crabgrass, Large (large crabgrass; [5]): 90
- Plant response rating, Crabgrass, Large (large crabgrass; [3]): 90
- Plant response rating, Crabgrass, Large (large crabgrass; [4]): 60
- Foxtail, Giant plant response rating (giant foxtail; Postemergence, 125 g ai/ha, scale 0 (no effect) to 100 (complete control)): 20
- Plant response rating, Foxtail, Giant (giant foxtail; [6]): 30
- Foxtail, Giant plant response rating (giant foxtail; [7]): 70
- Plant response rating, Foxtail, Giant (giant foxtail; [8]): 0

Source: patent publication US20060069132A1, “Azolecarboxamide herbicides” (priority 2004, published 2006)
